The values below come from PubChem BioAssay AID179 (DTP/NCI, 2004).

Usually EC50 stands for the concentration at which the effect is half-maximal. Usually IC50 stands for the concentration that gives 50% inhibition. A lower IC50 goes with inhibition by little substance.

The test deals with CEM cells HIV-1 protection, formazan growth assay. The experiment in a line: NCI AIDS Antiviral Assay. Conditions: for IC50: measured here: growth of uninfected CEM cells. The procedure, abridged: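 Category rules: moderately active means at least 50% protection on retest, and confirmed active means 100% protection reproducibly. The underlying data came from a formazan growth assay in HIV-1-infected CEM cells.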

Where “and” joins values, the source holds several entries; their conditions need not be identical. Equal values may be shown once. Calls of active or inactive are those of the source.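 The calls were made as follows: active = compounds giving half or more protection of infected cells from virus-caused growth loss, again on retest; inactive = the rest.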 Where a SMILES comes first, the peptide text is derived from it. [ ]: non-standard residue; d: D form. The star is where a group is joined. Boc = CC(C)(C)OC(=O)*; Lac = C[CH](O)C(=O)O; OBn = c1ccc(CO*)cc1

Take `Cc1cn(C2CC(N=[N+]=[N-])C(COC(=O)CCOCCCCCCCCCl)O2)c(=O)[nH]c1=O` (configuration not stated): the EC50 is 0.00692 µM and the IC50 was 20 µM.
Consider `O=C(Nc1ccccc1S)c1ccccc1`, for which the EC50 was 6.76 µM and the IC50 came out at 10.5 µM.
For `COc1ccc(CCC2(C(OC)OC)NC(=O)NC2=O)cc1` (configuration not stated), the EC50 is more than 200 µM and the concentration for half-maximal inhibition (IC50) is more than 200 µM.
Regarding `Cc1cc(=O)oc2c3c(cc(OC(C)C)c12)O[C@H](C)[C@@H](C)C3=O`, the EC50 was more than 200 µM and the IC50 was determined as 40.7 µM.
`CC1C[P+](c2ccccc2)(c2ccccc2)Cc2ccccc21` (configuration not stated): the EC50 was more than 708 µM and the half-maximal inhibitory concentration (IC50) amounted to 2.57 µM.
As to `CCOC(=O)CCC(NC(=O)c1ccc(OCc2nc3cc(C(F)(F)F)ccc3nc2-c2ccccc2)cc1)C(=O)OCC` (configuration not stated), the EC50 was more than 200 µM and the IC50 came out at 27.5 µM.
Take `NC(=O)N/N=C(/CC1C(=O)Oc2ccccc21)c1ccccc1O` (configuration not stated): the EC50 was more than 550 µM and the IC50 worked out at 295 µM.
`CCN(C(=O)N[C@@H](Cc1ccccc1)C(=O)N[C@@H](CC(C)C)C(=O)NC)c1ccccc1`: the EC50 was more than 200 µM and the IC50 came out at 195 µM.
Regarding `OCCN(CCO)c1ncnc2c1sc(=S)n2-c1ccccc1`, the EC50 was more than 724 µM and the IC50 is 282 µM.
Consider `CC(=O)C=O`, for which the outcome was inactive.
Take `CC1C2CC3(c4ccccc4)CC(/C2=N\O)/C(=N/O)C1[C@@]3(C)O` (some centres not stated): the EC50 is more than 200 µM and the IC50 was more than 200 µM.
For the compound `CC(C)=CC1CC(n2cc(C)c(=O)[nH]c2=O)ON1CCO` (configuration not stated), the EC50 was more than 200 µM and the IC50 is more than 200 µM.
For the compound `CCOC(=O)/N=N\C(=O)OCC`, the EC50 is more than 200 µM and the IC50 is more than 200 µM.
For the compound `CN(C)C(=O)Nc1c([N+](=O)[O-])cc(C(F)(F)F)cc1[N+](=O)[O-]`, the outcome was inactive.
For the compound `O=C(C[N+]12CCC(O)C1C(CO)CC2)c1ccc(Br)cc1` (configuration not stated), the EC50 is more than 575 µM and the IC50 was more than 575 µM.
The compound `O=C(O)c1c(Br)c(Br)c(Br)c(Br)c1-c1c2ccc(=O)cc-2oc2cc(O)ccc12` showed an EC50 of more than 200 µM and an IC50 of 28.2 µM.
On to `O=C(Nc1ccc(-c2ccco2)oc1=O)c1ccccc1`, for which the EC50 is more than 200 µM and the IC50 was more than 200 µM.
Regarding `CCCCCCC1=C(O)C(=O)C(CCCCCC)=C(O)C1=O`, the EC50 is more than 69.2 µM and the IC50 is 11.7 µM.
Turning to `CC1=NNC(=O)C1C1CC(c2c[nH]c3ccccc23)=NN(c2ccccc2)C1=O` (configuration not stated), the EC50 was more than 200 µM and the IC50 was 33.9 µM.
In the case of `COC(=O)/C=C(/C=C1/C(C#N)=C(N)N(c2ccc(Cl)cc2)C1(C)/C(=C\C(=O)OC)C(=O)OC)C(=O)OC` (configuration not stated), the EC50 was more than 200 µM and the IC50 is 8.91 µM.
`O=C1N=C(C=c2ccc(=Cc3[nH]c(=O)[nH]c3O)cc2)C(=O)N1`: the EC50 was 132 µM and the IC50 was more than 200 µM.
As for `C1C2CC3C1C1C[S+]3CC21` (configuration not stated), the EC50 is more than 380 µM and the IC50 is more than 380 µM.
Turning to `CC12CCC(=O)N1[C@@H](c1ccccc1)[C@@H](c1ccccc1)O2` (some centres not stated), the EC50 is more than 234 µM and the IC50 was more than 234 µM.
For `CCOP(=S)(OCC)Oc1cc(C)nc(C(C)C)n1`, the EC50 was more than 309 µM and the IC50 was more than 309 µM.
As to `CC(C)[C@](O)(C(=O)OCC1CCN2CC[C@@H](O)C12)[C@H](C)O` (some centres not stated), the EC50 was more than 200 µM and the IC50 was more than 200 µM.
On to `COc1ccc2[nH]c3c(c2c1)[C@H]1CCC(C(C)(C)C)C[C@H]1[C@H]1C(=O)N(c2ccccc2)C(=O)[C@@H]31` (some centres not stated), for which the EC50 was more than 7.94 µM and the IC50 is more than 7.94 µM.
Regarding `CCCCCCCCCCCC1CC(=O)NCCCN(C)CCCCN(C)CCCN1C` (configuration not stated), the EC50 is more than 200 µM and the IC50 came out at 1.12 µM.
Turning to `CCOC(=O)C(NC(=O)C(CCCCNP(=O)(OCC)OCC)NC(=O)C(C)NC(C)=O)C(C)C` (configuration not stated), the EC50 is more than 200 µM and the IC50 was more than 200 µM.
`CC1=C[C@@H]2c3cc(c(O)cc3O)C(=O)[C@H]3C(c4ccc(O)cc4O)CC(C)=C[C@@H]3c3cc(c(O)cc3O)C(=O)C2C(c2ccc(O)cc2O)C1` (some centres not stated): the outcome was inactive.
Consider `O=C(OC1CCC(=C2SCCCS2)[C@H]1C1SCCCS1)c1ccccc1` (some centres not stated), for which the result was inactive.
With `COc1ccccc1/C=C1\NC(=S)N(/C=C2\C(=O)Oc3ccccc3C2=O)C1=O`, the EC50 was more than 200 µM and the IC50 is 81.3 µM.
For `CCOC(OCC)/C(C)=N/[N+](C)(C)C`, in that order: more than 200 µM and more than 200 µM.
Take `C(=C\c1ccc2ccccc2n1)/c1cccnc1`: the EC50 is more than 214 µM and the IC50 was 12 µM.
For `Clc1ccc2c(Cl)nc(-c3ccccc3)nc2c1`, the outcome was inactive.
In the case of `CCN1N=CSC12C(=O)N(c1ccccc1)C(=O)N2c1ccccc1` (configuration not stated), the result was inactive.
As to `O=C(O)/C=C\Sc1ccccc1C(=O)O`, the EC50 was more than 1120 µM and the IC50 was more than 1120 µM.
Take `Cc1[nH]c2ccccc2c1C1Cc2ccccc2N1C(=O)C#Cc1ccc([N+](=O)[O-])cc1` (configuration not stated): the outcome was inactive.
As to `COc1nc(C(=O)NNC(=O)c2nc(OC)c3ccccc3c2-c2ccccc2)c(-c2ccccc2)c2ccccc12`, the outcome was inactive.
For the compound `CN1CCN(c2c(C(=O)Nc3ccc([N+](=O)[O-])cc3)cc([N+](=O)[O-])cc2[N+](=O)[O-])CC1`, the EC50 is more than 200 µM and the IC50 was more than 100 µM.
`O=C(Nc1nc(Cl)nc(Cl)n1)N1CCOCC1`: the EC50 is more than 200 µM and the IC50 is more than 200 µM.
For the compound `CCOC(=O)C[C@@]12CCCN[C@]1(C)CCc1ccccc12`, the result was inactive.
Turning to `O=C1/C(=C/c2ccc(Cl)cc2)CNC/C1=C\c1ccc(Cl)cc1`, the EC50 is more than 151 µM; the IC50 was 10.5 µM and 1.05 µM.
Turning to `Cc1cccc2c1CC1(Cc3ccccc3C1=O)C2=O` (configuration not stated), the EC50 was more than 200 µM and the IC50 was more than 200 µM.
In the case of `O=[N+]([O-])c1cccc2c(Nc3ccc(S(=O)(=O)Nc4nccs4)cc3)c3ccccc3nc12`, the EC50 is more than 200 µM and the IC50 amounted to 21.9 µM.
With `CC(=O)NC1C(OCc2ccccc2)OC(CO)C(O)C1OCC(=O)N1CCCC1C(=O)NC(CCC(=O)NCCCCCNc1c2ccccc2nc2cccc([N+](=O)[O-])c12)C(N)=O` (configuration not stated), the EC50 was more than 200 µM and the half-maximal inhibitory concentration (IC50) stood at 0.209 µM.
The corresponding values for `O=C1C(=Cc2cccs2)C(=O)N(CCc2ccccc2)S(=O)(=O)N1CCc1ccccc1` are more than 8.13 µM and more than 8.13 µM.
Regarding `CCC(C)C(CC)C(=O)NC(N)=O` (configuration not stated), the EC50 was more than 200 µM and the IC50 is more than 200 µM.
As to `CC(OC(=O)C(Cc1ccccc1)NC(=O)C(Cc1ccccc1)NC(=O)OC(C)(C)C)C(=O)OCc1ccccc1` (stereo not drawn) (Boc-Phe-Phe-[Lac]-OBn; configuration not given here), the EC50 was more than 200 µM and the IC50 amounted to 105 µM.
Regarding `Cn1cc2c(=O)n3ncn(-c4ccc(Br)cc4)c3nc2n1`, the EC50 was more than 200 µM and the IC50 was more than 200 µM.
With `COc1ccc2c(c1)OC(=O)CC2c1ccc(OC)c(OC)c1` (configuration not stated), the EC50 is more than 200 µM and the concentration for half-maximal inhibition (IC50) was more than 200 µM.
Consider `CCOC(=O)C1Cc2ccc(C)cc2C1=O` (configuration not stated), for which the EC50 was more than 200 µM and the IC50 amounted to 110 µM.
As to `N#CNC1=NCOCN1`, the EC50 was more than 708 µM and the IC50 is more than 708 µM.
As for `CCc1cccc(C(C)C)c1NC(=O)C(=O)C(c1ccccc1)S(=O)(=O)Cc1ccccc1` (configuration not stated), the EC50 was more than 200 µM and the IC50 is more than 200 µM.
For the compound `CC1=C(C(=O)NC2CCCCC2)CC(C(=O)NC2CCCCC2)=C(C)N1`, the EC50 was more than 200 µM and the IC50 was 72.4 µM.
For the compound `CN(C)CCC(/C=C/c1ccccc1)=N\Nc1ccccc1`, the outcome was inactive.
Turning to `C=CCN(c1cc(OC)c2[nH]c(C(=O)O)c(C)c2c1[N+](=O)[O-])S(C)(=O)=O`, the EC50 is more than 200 µM and the IC50 is more than 200 µM.
For `Clc1ccc2nc(-c3ccc(Cl)c(Cl)c3)cc(-c3ccccc3)c2c1`, the EC50 was more than 200 µM and the IC50 was more than 200 µM.
`O=[N+]([O-])c1ccc(SSc2ccc([N+](=O)[O-])cc2Cl)c(Cl)c1`: the EC50 is more than 200 µM and the IC50 was 10 µM.
On to `CC(=O)OC(C(=O)NNC(=O)OC(C)(C)C)c1ccccc1` (configuration not stated), for which the EC50 is more than 200 µM and the IC50 was more than 200 µM.
For the compound `Cc1nn(-c2ccc(S(=O)(=O)[O-])cc2)c([O-])c1N=[N+](C)c1ccc(-c2ccc(N=Nc3ccc4c(S(=O)(=O)[O-])cc(S(=O)(=O)[O-])c(N)c4c3[O-])c([O-])c2)cc1[O-].[Cu+2].[Cu+2].[Na+]`, the EC50 was 6.76 µM and the IC50 turned out to be 120 µM.
Turning to `Cn1c(=O)c2c(c3c(c(=O)n(C)c(=O)n3C)n2Cc2ccccc2)n(C)c1=O`, the EC50 was more than 93.3 µM and the IC50 is more than 93.3 µM.
Turning to `CCC(Cc1ccccc1)C1=NC(C)(C)CC(C)O1` (configuration not stated), the EC50 was more than 200 µM and the IC50 came to 79.4 µM.
In the case of `O=C(Nc1nn[nH]n1)c1nc(-c2ccccc2)cc(=O)[nH]1`, the EC50 was more than 200 µM and the IC50 was more than 200 µM.
As for `O=C1CCc2nc3ccccc3c(=O)n21`, the EC50 was more than 1260 µM and the IC50 was more than 1260 µM.
With `CCOC(=O)C[P+](c1ccc(OC)cc1)(c1ccc(OC)cc1)c1ccc(OC)cc1`, the EC50 is more than 200 µM and the IC50 is 33.1 µM.
Regarding `C=C1CC(Cn2cc(Br)c(=O)[nH]c2=O)(c2ccc(-c3ccccc3)cc2)OC1=O` (configuration not stated), the EC50 was more than 20 µM and the IC50 came out at 0.457 µM.
`ClC1(c2ccccc2)c2ccc(Br)cc2-c2cc(Br)ccc21`: the EC50 was more than 200 µM and the IC50 came to 5.75 µM.
The corresponding values for `COc1ccc2c(c1)nc1n2C(N)=Nc2ccccc2S1` are more than 200 µM and 11.5 µM.
Consider `COc1ccc(C(O)C(C)C(O)(C(F)(F)F)C(F)(F)F)cc1` (configuration not stated), for which the EC50 is more than 200 µM and the IC50 worked out at 95.5 µM.
For `CC(C)(/C=N\O)NO`, the EC50 is more than 200 µM and the IC50 was more than 200 µM.
For `COc1cc(-c2coc3cc(O)ccc3c2=O)c(O)c(OC)c1OC`, the EC50 is more than 200 µM and the IC50 came to 72.4 µM.
